Test results: patent US6303785A, “Compounds having activity as inhibitors of cytochrome P450RAI” (Allergan Sales, Inc., priority 2000, dated 2001)

Legend:
human skin = conditions: known; cited from earlier work
skin of hairless mice = experiment: Topical Skin Irritation Test (cutaneous toxicity / Blackjack score); type: in vivo, hairless mouse (Cr1:SKH1-hrBR); conditions: topical once daily days 1-5, mean±SD, range 0-21
Excerpt: Mice were housed individually throughout the dosing period.
Doses are disclosed as nmol/25 g.
The grading scale used is as follows:
Values can range from 0-9.
Values can range from 0-8.

RARβ [1] = experiment: chimeric receptor transactivation assay, RARβ; type: cell-based; conditions: read-out: RAR EC50 β
Excerpt: (§1) Assays described below measure the ability of a compound to bind to, and/or activate various retinoid receptor subtypes. When in these assays a compound binds to a given receptor subtype and activates the transcription of a reporter gene through that subtype, then the compound is considered an agonist of that receptor subtype. […] In the below described assays the ability of the compounds to bind to RARα, […], RARγ, […] and RXRγ receptors, and the ability or inability of the compounds to activate transcription of a reporter gene through these receptor subtypes can be tested.
(§2) The results obtained in this assay are expressed in EC50 numbers, as they are also in the chimeric receptor transactivation assay. The results of ligand binding assay are expressed in Kd numbers.

RARγ = experiment: chimeric receptor transactivation assay, RARγ; type: cell-based; conditions: read-out: RAR EC50 γ
Excerpt: as §1, §2

RARβ [2] = target: T1, RARβ (Homo sapiens, UniProt P10826); experiment: ligand binding assay, RARβ; conditions: read-out: RAR Kd β
T1 sequence (P10826 1-455): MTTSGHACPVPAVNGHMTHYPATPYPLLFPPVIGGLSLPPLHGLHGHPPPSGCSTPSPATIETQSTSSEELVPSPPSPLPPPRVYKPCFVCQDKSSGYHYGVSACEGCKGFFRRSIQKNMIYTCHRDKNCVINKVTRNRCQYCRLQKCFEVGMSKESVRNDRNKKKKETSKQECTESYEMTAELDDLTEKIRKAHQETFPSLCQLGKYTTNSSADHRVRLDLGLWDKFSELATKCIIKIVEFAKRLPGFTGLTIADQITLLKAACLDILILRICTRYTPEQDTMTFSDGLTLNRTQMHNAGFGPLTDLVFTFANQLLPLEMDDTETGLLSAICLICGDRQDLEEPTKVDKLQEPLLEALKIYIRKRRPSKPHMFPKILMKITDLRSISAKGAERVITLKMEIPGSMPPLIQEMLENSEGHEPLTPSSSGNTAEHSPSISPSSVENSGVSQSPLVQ
Excerpt: as §1, §2

psoriasis = conditions: prior art; cited from earlier work

| Compound | Cutaneous Toxicity Score (Blackjack Score) (skin of hairless mice; 100 nmole (per 25 g)) | Cutaneous Toxicity Score (Blackjack Score) (skin of hairless mice; 1000 nmole (per 25 g)) | Cutaneous Toxicity Score (Blackjack Score) (skin of hairless mice; 300 nmole (per 25 g)) | other results |
| --- | --- | --- | --- | --- |
| CC1=C(/C=C/C(C)=C/C=C/C(C)=C\C(=O)O)C(C)(C)CCC1 [13-cis RA] |  |  |  | skin irritation in humans (in words) (human skin): substantial skin irritation |
| CC1=C(/C=C/C(C)=C/C=C/C(C)=C/C(=O)O)C(C)(C)CCC1 [ATRA, all-trans-retinoic acid] |  |  |  | skin irritation in humans (in words) (human skin): substantial skin irritation |
| CC1(C)CCC(=O)c2ccc(C#Cc3ccc(CC(=O)O)cc3)cc21 [Compound 5, 4-[(8,8-Dimethyl1-5-oxo-5,6,7,8-tetrahydro-naphthalene-2-yl-ethynyl)-phenyl]-acetic acid] | 0 | 6 ± 3 |  |  |
| CN(C1CC1)C1CCC(C)(C)c2cc(C#Cc3ccc(CC(=O)O)cc3)ccc21 (centres unmarked) [Compound 8, 4-[(5-(Cyclopropyl-methyl-amino)-8,8-dimethyl-5,6,7,8-tetrahydro-naphthalene-2-yl-ethynyl)-phenyl]-acetic acid] | 5 ± 2 | 12 ± 1 | 8 ± 3 |  |
| CC1(C)CCC(=O)c2ccc(C#Cc3ccc(C(=O)O)c(F)c3)cc21 [Compound 10, 2-Fluoro-4(8,8dimethyl-5-oxo-5,6,7,8-tetrahydro-naththalen-2yl-ethynyl)benzoic acid] |  |  |  | EC50 (RARβ [1]): 0.3 nM; EC50 (RARγ): 6 nM |
| CC1(C)CCC(=O)c2ccc(C#Cc3ccc(CC(=O)O)c(F)c3)cc21 [Compound 15, [2-Fluoro-4-(8,8-dimethyl-5-oxo-5,6,7,8-tetrahydro-naphthalene-2-yl-ethynl)phenyl]-acetic acid] | 1 ± 1 | 5 ± 2 |  |  |
| CN(C1CC1)C1CCC(C)(C)c2cc(C#Cc3ccc(CC(=O)O)c(F)c3)ccc21 (centres unmarked) [Compound 18, [4-(5-(Cyclopropyl-methyl-amino)-8,8-dimethyl-5,6,7,8-tetrahydro-naphthalene-2-yl-ethynyl)-2-fluoro-phenyl]-acetic acid] | 0 ± 0 | 10 ± 2 | 5 ± 2 |  |
| CC1(C)CN(C2CC2)Cc2ccc(C#Cc3ccc(CC(=O)O)c(F)c3)cc21 [Compound 22, [4-(2-Cyclopropyl-4,4-dimethyl-1 2,3,4-tetrahydro-isoquinolin-6-yl-ethynyl)-2-fluoro-phenyl]-acetic acid] | 0 ± 0 | 1 ± 1 | 0 ± 0 |  |
| CC1(C)CC(C)(C)c2cc(C#Cc3ccc(CC(=O)O)cc3)cc(C3CC3)c2O1 [Compound 36, [4-(8-Cyclopropyl-2,2,4,4-tetramethyl-chroman-6-yl-ethynyl)phenyl]acetic acid] | 1 ± 1 | 11 ± 0 |  |  |
| CC1(C)CC(C)(C)c2cc(C#Cc3ccc(CC(=O)O)c(F)c3)cc(C3CC3)c2O1 [Compound 38, [4(8-Cyclopropyl-2,2,4,4tetramethyl-chroman-6-yl-ethynyl)-2-fluoro-phenyl]acetic acid] | 1 ± 1 | 10 ± 1 |  |  |
| CC1(C)CC2(CC2)Oc2c(C3CC3)cc(C#Cc3ccc(CC(=O)O)cc3)cc21 [Compound 48, Benzeneacetic acid, 4-[(8-cyclopropyl-3,4-dihydro-4,4-dimethylspiro[2H 1-benzopyran-2.1'-cyclopropane]-6-yl)ethanyl]-] | 1 ± 1 | 7 ± 2 | 3 ± 1 |  |
| CC1(C)CC2(CC2)Oc2c(C3CC3)cc(C#Cc3ccc(CC(=O)O)c(F)c3)cc21 [Compound 50, 4-[(8-Cyclopropyl-3,4-dihydro-4,4-dimethylspiro[2H-1-benzopyran-2,1'-cyclopropane]-6-yl)ethynyl]-2-fluoro-benzeneacetic acid] | 1 ± 0 | 8 ± 2 | 3 ± 2 |  |
| CC1(C)CC2(CC2)Oc2c(C3CC3)cc(C(=O)Oc3ccc(CC(=O)O)cc3)cc21 [Compound 58, Spiro[2H-1-benzopyran-2,1'-cyclopropane]-6-carboxylic acid, 8-cyclopropyl-3,4-dihydro-4,4-dimethyl-, 4-(carboxymethyl)phenyl ester] | 0 ± 0 | 0 ± 0 | 0 ± 0 |  |
| CCc1cc(C#Cc2ccc(C(=O)O)cc2)ccc1C1(OCc2ccccc2)CC1 [Compound 93, 4-[4-(1-Benzyloxycyclopropyl)-3-ethyl-phenylethynyl]-benzoic acid] |  |  |  | EC50 (RARβ [1]): 20 nM; EC50 (RARγ): 10 nM |
| O=C(O)c1ccc(C#Cc2ccc(C3(N(Cc4ccccc4)Cc4ccccc4)CC3)cc2)cc1 [Compound 114] |  |  |  | Kd (RARβ [2]): > 10 nM |
| CC1(C)CCC(n2ccnc2)c2ccc(C#Cc3ccc(CC(=O)O)cc3)cc21 (centres unmarked) [Compound 137, [4-(5-Imidazol-1-yl-8,8-dimethyl-5,6,7,8-tetrahydro-naphthalen-2-yl-ethynyl)-phenyl]-acetic acid] | 1 ± 1 | 5 ± 2 | 1 ± 1 |  |
| CCOC(=O)/C=C(C)/C=C/C=C(C)/C=C/c1c(C)cc(OC)c(C)c1C [etretinate] |  |  |  | skin irritation in humans (in words) (human skin): substantial skin irritation |
| Clc1cccc(C(c2ccc3[nH]cnc3c2)n2ccnc2)c1 (centres unmarked) [liarozole] |  |  |  | retinoid-like effect of treatment (in words) (psoriasis): amelioration of psoriasis |
